Experimental data as given in US10350210B2, “EGFR and ALK dual inhibitor” (PRECEDO PHARMACEUTICALS CO., LTD, priority 2015, dated 2019).

Key:
NCI-H2122 = assay: Growth of cancer cells (Cell Titer-Glo viability), NCI-H2122; type: cell-based; conditions: Homo sapiens; NCI-H2122 (wild-type EGFR), 72 hrs
BaF3-TEL-ALK = assay: Cell growth (Cell Titer-Glo viability), BaF3-TEL-ALK; type: cell-based; conditions: Mus musculus; BaF3-TEL-ALK (stably expressing ALK kinase), 72 hrs
Procedure, shortened: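 Mouse BaF3 cells retrovirally transduced with human kinase fused to N-terminal TEL fragment, then IL-3 withdrawn so proliferation depends on the transgene. HCC827 carries EGFR del19 and NCI-H3255 EGFR L858R. Viable cells were quantified by CellTiter-Glo chemiluminescence on a microplate reader.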

[1] = test system: non-small cell lung cancer cell H3122 subcutaneous tumors; assay: Mouse tumor model of non-small cell lung cancer cell H3122; type: in vivo; conditions: for tumor inhibition rate: Bal b/c mice
Procedure: Similarly, 72 Bal b/c female mice, 4-6 weeks old, were purchased from Shanghai SLAC Laboratory Animal Co., Ltd., and maintained in an SPF laboratory. Drinking water and bedding were both sterilized by autoclaving. All operations involving the mice were performed under aseptic conditions. At day 0, 5×10^6 non-small cell lung cancer cells H3122 (purchased from ATCC) were injected subcutaneously into the left flank of all mice. At day 15, all mice were divided into eight groups (9 mice per group), and the first group of mice were orally administered with methyl cellulose (HKI) solvent, the second group of mice were orally administered with Compound 1 at a dose of 5 mg/kg mouse weight, the third group of mice were orally administered with Compound 1 at a dose of 10 mg/kg mouse weight, the fourth group of mice were orally administered with Compound 1 at a dose of 20 mg/kg mouse weight, the fifth group of mice were orally administered with methyl cellulose (HKI) solvent, the sixth group of mice were orally administered with Compound 10 at a dose of 10 mg/kg mouse weight, the seventh group of mice were orally administered with Compound 10 at a dose of 20 mg/kg mouse weight, and the eighth group of mice were orally administered with Compound 10 at a dose of 40 mg/kg mouse weight daily. Starting from the administration, the length/width of the subcutaneous tumor was measured daily with a vernier caliper, and the weight of the mice was recorded daily to observe the effect of Compounds 1 and 10 on the body weight of the mice. For the first to fourth groups, the mice were sacrificed at day 36 and the subcutaneous tumors were collected. The tumors were weighed, and then the tumor tissues were used to prepare protein lysates for use. The growth trend of the subcutaneous tumor within 16-36 days was plotted, wherein the tumor volume was calculated as length×width×width/2 mm^3. For the fifth to eighth groups, the mice were sacrificed at day 43 and the subcutaneous tumors were collected. The tumors were weighed, and then the tumor tissues were used to prepare protein lysates for use. The growth trend of the subcutaneous tumor within 16-43 days was plotted, wherein the tumor volume was calculated as length×width×width/2 mm^3.

NCI-H1975 = assay: Growth of cancer cells (Cell Titer-Glo viability), NCI-H1975; type: cell-based; conditions: Homo sapiens; NCI-H1975 (EGFR L858R/T790M double mutant), 72 hrs
Procedure, shortened: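 Cells are counted as viable by CellTiter-Glo chemiluminescence. Murine BaF3 lines depend on a stably transfected TEL-fused kinase after IL-3 withdrawal, and the NSCLC lines express mutant EGFR.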

BaF3 = assay: Cell growth (Cell Titer-Glo viability), BaF3; type: cell-based; conditions: BaF3 mouse primary B cell, 72 hrs

Structure (SMILES): C=CC(=O)Nc1cc(Nc2ncc(Cl)c(Nc3ccccc3S(=O)(=O)C(C)C)n2)c(OC)cc1N1CCCN(C)CC1 [Compound 10, N-(5-(5-chloro-4-(2-(isopropylsulfonyl)phenylamino)pyrimidin-2-ylamino)-4-methoxy-2-(4-methyl-1,4-homopiperazin-1-yl)phenyl)acrylamide]
- GI50 (NCI-H2122): 190 nM
- GI50 (BaF3-TEL-ALK): 3 nM
- tumor inhibition rate ([1]; oral daily 20 mg/kg): 68.3%
- tumor inhibition rate ([1]; oral daily 40 mg/kg): 78.4%
- body weight of the mice ([1]; oral daily 20 mg/kg): did not decrease
- body weight of the mice ([1]; oral daily 40 mg/kg): did not decrease
- GI50 (NCI-H1975): 15 nM
- GI50 (BaF3): 1200 nM

Structure (SMILES): C=CC(=O)Nc1cc(Nc2ncc(Cl)c(Nc3ccccc3S(=O)(=O)C(C)C)n2)c(OC)cc1N1CCN(CC)CC1 [Compound 1, N-(5-(5-chloro-4-(2-(isopropylsulfonyl)phenylamino)pyrimidin-2-ylamino)-2-(4-ethylpiperazin-1-yl)-4-methoxyphenyl)acrylamide]
- GI50 (NCI-H2122): 9 nM
- GI50 (BaF3-TEL-ALK): < 0.3 nM
- tumor inhibition rate ([1]; oral daily 10 mg/kg, on the second day of administration): 61.5%
- tumor inhibition rate ([1]; oral daily 20 mg/kg): 77.7%
- body weight of the mice ([1]; oral daily 10 mg/kg): did not decrease
- GI50 (NCI-H1975): 67 nM
- GI50 (BaF3): 1400 nM
